Experimental data from patent US10723741B1, “DNA polymerase IIIC inhibitors and use thereof” (Acurx Pharmaceuticals, LLC, priority 2018, dated 2020).
Values after ≈ are worked out from the molar mass of the structure shown. Where two headings read alike, the source gives them in different places.

Tests used:
Type in all cases: cell-based
[1] = tested on: Staphylococcus aureus NRS384 (MRSA); test: Broth microdilution MIC, S. aureus NRS384 (MRSA); parameters: MIC NRS 384 (MRSA): unit not given here; settings: broth microdilution, 37° C., 20 hours; for MIC: Staphylococcus aureus, read-out: MIC NRS 384 (MRSA)
From the text: (§1) Bacteria tested are Staphylococcus aureus NRS384 (a methicillin-resistant Staphylococcus aureus, MRSA), Staphylococcus aureus ATCC 29213 (a methicillin-sensitive Staphylococcus aureus, MSSA), Streptococcus pneumoniae ATCC 49619, Enterococcus faecalis ATCC 29212, Enterococcus faecium ATCC 700221 (a vancomycin-resistant enterococcus, VRE), Bacillus subtilis ATCC 6633, and Escherichia coli ATCC 25922.
(§2) Staphylococcus aureus NRS384 was obtained from NARSA (Network on Antimicrobial Resistance in Staphylococcus aureus, now the strain collection is in BEI resources). Other bacterial isolates were from ATCC (The American Type Culture Collection). Upon receiving the bacteria samples from aforementioned institutes, the bacteria were cultured according to the manuals provided by the suppliers. The bacteria were stored in 25% glycerol (final concentration) at −80° C.
(§3) On the day of testing, the compounds were dissolved in pure DMSO (Sigma 276855-1L) to […] as stock. In a v-bottom 96-well plate (Axygen-wipp02280), 20 μl DMSO was added into well 2 to well 12 by manual pipetting. Into well 1, 12.8 μL of compound DMSO stock (20 mg/ml) was added and mixed with 27.2 μl DMSO by pipetting. Two fold serial dilutions were performed by transferring and mixing 20 μl of solution from well 1 to well 2, then well 2 to well 3 and so forth until well 11. The well 12 was loaded with 20 μl DMSO without compounds. This was drug ‘mother plate’. From well 1 to well 12, the drug concentrations in the mother plate were […] in DMSO. A multi-pipette was used to perform the serial dilutions. The concentration may be adjusted according to the potency of the compounds. An Echo® Acoustic liquid handling system may be used to replace manual pipetting to make the daughter plates.
(§4) One day prior to the day of MIC testing, bacterial strains were streaked out from −80° C. glycerol stocks onto MHA plates and incubated at 37° C. for 20 hours. Streptococcus pneumoniae was streaked on blood agar and incubated at 37° C. in 5% CO2. The single colonies were picked by using an inoculation loop (Greiner-731175) and suspended into 5 ml sterile saline. The turbidity of the suspension was adjusted to 0.10 (Siemens MicroScan turbidity meter), equal to ˜1.0×10^8 cfu/ml. The bacterial suspension was diluted 200× in corresponding test medium (Table 1). This was used to inoculate daughter plates.
(§5) For preparing u-bottom 96-well ‘daughter plates’ (Costar 3788), an aliquot of 1 μl solution from mother plate was then replicating transferred into the daughter plate using a multi-pipette.
(§6) An aliquot of 99 μl of the bacterial suspension was inoculated into each well of the daughter plates using a multi-pipette. Each well contained ˜5.0×10^5 cfu/ml bacteria, 1% DMSO and serially diluted compounds at 64, 32, 16, 8, 4, 2, 1, 0.5, 0.25, 0.125, 0.0625 and 0 μg/ml from well 1 to well 12 respectively, in 100 μl corresponding test medium.
(§7) The plates were incubated in ambient atmosphere and in a 37° C. incubator for 20 hours.
(§8) Compounds of the present invention were tested for antibacterial activity against a variety of bacterial organism including Bacillus subtilis, Staphylococcus aureus, Enterococcus faecalis, Enterococcus faecium, Streptococcus pneumoniae and Escherichia coli. […] Compounds described in Examples 2, 44, 53, 56, 90, 134, 212, 213, 214, 218, 222, 304, 305, and 307 had MIC of ≤1 μg/ml against S. aureus NRS 384 (MRSA) (μg/ml) and E. faecium ATCC 700221 (VRE) (μg/ml).

[2] = tested on: Staphylococcus aureus ATCC 29213 (MSSA); test: Broth microdilution MIC, S. aureus ATCC 29213 (MSSA); settings: broth microdilution, 37° C., 20 hours, read-out: MIC S. aureus ATCC 29213 (MSSA)
From the text: as §1, §2, §3, §4, §5, §6, §7, §8

[3] = tested on: Enterococcus faecalis ATCC 29212; test: Broth microdilution MIC, E. faecalis ATCC 29212; settings: ATCC29212, broth microdilution, 37° C., 20 hours, read-out: MIC E. faecalis ATCC 29212
From the text: as §1, §2, §3, §4, §5, §6, §7, §8

[4] = tested on: Enterococcus faecium ATCC 700221 (VRE); test: Broth microdilution MIC, E. faecium ATCC 700221 (VRE); parameters: MIC E. faecium ATCC 700221 (VRE): unit: ug/mL; settings: broth microdilution, 37° C., 20 hours; for MIC: Enterococcus faecium, read-out: MIC E. faecium ATCC 700221 (VRE)
From the text: as §1, §2, §3, §4, §5, §6, §7, §8

[5] = tested on: Streptococcus pneumoniae ATCC 49619; test: Broth microdilution MIC, S. pneumoniae ATCC 49619; settings: ATCC49619, broth microdilution, 37° C., 20 hours, read-out: MIC S. pneumoniae ATCC 49619
From the text: as §1, §2, §3, §4, §5, §6, §7, §8

[6] = tested on: Bacillus subtilis ATCC 6633; test: Broth microdilution MIC, B. subtilis ATCC 6633; settings: ATCC6633, broth microdilution, 37° C., 20 hours, read-out: MIC B. subtilis ATCC 6633
From the text: as §1, §2, §3, §4, §5, §6, §7, §8

[7] = tested on: Escherichia coli ATCC 25922; test: Broth microdilution MIC, E. coli ATCC 25922 (MHIIB w & w/o 4 mM EDTA); settings: broth microdilution, 37° C., 20 hours; for MIC: Escherichia coli, ATCC25922, without EDTA, read-out: MIC E. coli ATCC 25922; for MIC E. coli ATCC 25922 + 4 mM EDTA: with 4 mM EDTA
From the text: as §1, §2, §3, §4, §5, §6, §7, §8

Row | SMILES | MIC [1] [µg/mL] | MIC [2] [µg/mL] | MIC [3] [µg/mL] | MIC [4] [µg/mL] | MIC [5] [µg/mL] | MIC [6] [µg/mL] | MIC [7] [µg/mL] | MIC E. coli ATCC 25922 + 4 mM EDTA [7] [µg/mL] | MIC NRS 384 (MRSA) [1] | MIC E. faecium ATCC 700221 (VRE) [4] | MIC ([1]; S. aureus NRS 384) [µg/mL]
1 | Cl.O=C(c1ccncc1)N1CCC(n2ncc3nc(NCc4ccc(Cl)c(Cl)c4)[nH]c(=O)c32)C1 (centres unmarked) [Compound 259, 5-[(3,4-Dichlorophenyl)methylamino]-1-[1-(pyridine-4-carbonyl)pyrrolidin-3-yl]-6H-pyrazolo[4,3-d]pyrimidin-7-one] | 8 | 8 | 4 | 4 | 4 | 2 | > 64 | >64 |  |  | 
2 | Cl.O=c1[nH]c(NCc2ccc(Cl)c(Cl)c2)nc2cnn(CCOc3ccc(CO)nc3)c12 [Compound 174, 5-((3,4-dichlorobenzyl)amino)-1-(2-((6-(hydroxymethyl)pyridin-3-yl)oxy)ethyl)-1H-pyrazolo[4,3-d]pyrimidin-7(6H)-one hydrochloride] |  | 8 | 8 |  | 8 | 2 | > 64 | >64 | 8/8 | 2/2 | 
3 | NC(=O)COCCn1ncc2nc(NCc3ccc(Cl)c(Cl)c3)[nH]c(=O)c21 [Compound 284, 2-[2-[5-[(3,4-dichlorophenyl)methylamino]-7-oxo-6H-pyrazolo[4,3-d]pyrimidin-1-yl]ethoxy]acetamide] | 64 (≈ 156 µM) | 16 (≈ 38.9 µM) | 16 (≈ 38.9 µM) | 8 (≈ 19.5 µM) | 8 (≈ 19.5 µM) | 8 (≈ 19.5 µM) | > 64 | >64 |  |  | 
4 | O=c1[nH]c(NCc2ccc(F)c(F)c2)nc2c(F)nn(CCOCCO)c12 [Compound 301, 5-((3,4-difluorobenzyl)amino)-3-fluoro-1-(2-(2-hydroxyethoxy)ethyl)-1H-pyrazolo[4,3-d]pyrimidin-7(6H)-one] |  | 8 (≈ 20.9 µM) | 8 (≈ 20.9 µM) | 4 (≈ 10.4 µM) | 4 (≈ 10.4 µM) | 8 (≈ 20.9 µM) | > 64 | >64 |  |  | 4 (≈ 10.4 µM)
5 | Cn1ncc2nc(NCc3ccc(F)c(F)c3)[nH]c(=O)c21 [Compound 7, 5-((3,4-Difluorobenzyl)amino)-1-methyl-1H-pyrazolo[4,3-d]pyrimidin-7(6H)-one] | 16 (≈ 54.9 µM) | 16 (≈ 54.9 µM) | 16 (≈ 54.9 µM) | 8 (≈ 27.5 µM) | 8 (≈ 27.5 µM) | 8 (≈ 27.5 µM) | > 64 | >64 |  |  | 
6 | Cc1ccc(CNc2nc3c(F)nn(CCOCCO)c3c(=O)[nH]2)cc1F [Compound 313, 3-Fluoro-5-((3-fluoro-4-methylbenzyl)amino)-1-(2-(2-hydroxyethoxy)ethyl)-1H-pyrazolo[4,3-d]pyrimidin-7(6H)-one] |  | 8 (≈ 21.1 µM) | 16 (≈ 42.2 µM) | 8 (≈ 21.1 µM) | 8 (≈ 21.1 µM) | 2 (≈ 5.27 µM) | > 64 | >64 |  |  | 16 (≈ 42.2 µM)
7 | O=C(O)CCCCn1nc(F)c2nc(NCc3ccc(Cl)c(Cl)c3)[nH]c(=O)c21 [Compound 209, 5-(5-((3,4-dichlorobenzyl)amino)-3-fluoro-7-oxo-6,7-dihydro-1H-pyrazolo[4,3-d]pyrimidin-1-yl)pentanoic acid] | 16 (≈ 37.4 µM) | 8 (≈ 18.7 µM) | 4 (≈ 9.34 µM) | 1 (≈ 2.34 µM) | 4 (≈ 9.34 µM) | 4 (≈ 9.34 µM) | > 64 | >64 |  |  | 
8 | CCOC(=O)CCCCn1ncc2nc(NCc3ccc(Cl)c(Cl)c3)[nH]c(=O)c21 [Compound 203, ethyl 5-(5-((3,4-dichlorobenzyl)amino)-7-oxo-6,7-dihydro-1H-pyrazolo[4,3-d]pyrimidin-1-yl)pentanoate] | 2 (≈ 4.56 µM) | 2 (≈ 4.56 µM) | > 64 | 2 (≈ 4.56 µM) | 8 (≈ 18.3 µM) | 0.5 (≈ 1.14 µM) | > 64 | >64 |  |  | 

Other lines, results leading:

Row | MIC [1] [µg/mL] | MIC [2] [µg/mL] | MIC [3] [µg/mL] | MIC [4] [µg/mL] | MIC [5] [µg/mL] | MIC [6] [µg/mL] | MIC [7] [µg/mL] | MIC E. coli ATCC 25922 + 4 mM EDTA [7] [µg/mL] | MIC NRS 384 (MRSA) [1] | MIC E. faecium ATCC 700221 (VRE) [4] | MIC ([1]; S. aureus NRS 384) [µg/mL] | SMILES
9 | > 64 | > 64 | > 64 | > 64 | > 64 | > 64 | > 64 | >64 |  |  |  | Cn1ncc2nc(NCc3cccnn3)[nH]c(=O)c21 [Compound 23, 1-Methyl-5-((pyridazin-3-ylmethyl)amino)-1H-pyrazolo[4,3-d]pyrimidin-7(6H)-one]
10 | 2 (≈ 4.1 µM) | 2 (≈ 4.1 µM) | 4 (≈ 8.19 µM) | 2 (≈ 4.1 µM) | 2 (≈ 4.1 µM) | 1 (≈ 2.05 µM) | > 64 | >64 |  |  |  | O=C(c1cocn1)N1CCC(n2ncc3nc(NCc4ccc(Cl)c(Cl)c4)[nH]c(=O)c32)CC1 [Compound 253, 5-[(3,4-Dichlorophenyl)methylamino]-1-[1-(oxazole-4-carbonyl)-4-piperidyl]-6H-pyrazolo[4,3-d]pyrimidin-7-one]
11 | 16 (≈ 38 µM) | 32 (≈ 76 µM) | 16 (≈ 38 µM) | 8 (≈ 19 µM) | 8 (≈ 19 µM) | 4 (≈ 9.5 µM) | > 64 | >64 |  |  |  | O=c1[nH]c(NCc2ccc(Cl)c(Cl)c2)nc2cnn(Cc3coc(CO)n3)c12 [Compound 171, 5-((3,4-dichlorobenzyl)amino)-1-((2-(hydroxymethyl)oxazol-4-yl)methyl)-1H-pyrazolo[4,3-d]pyrimidin-7(6H)-one]
12 | 4 | 8 | 8 | 2 | 4 | 2 | > 64 | 64 |  |  |  | COCCN1CCC(n2ncc3nc(NCc4ccc(Cl)c(Cl)c4)[nH]c(=O)c32)CC1.Cl [Compound 157, 5-((3,4-dichlorobenzyl)amino)-1-(1-(2-methoxyethyl)piperidin-4-yl)-1H-pyrazolo[4,3-d]pyrimidin-7(6H)-one hydrochloride]
13 | 32 | 32 | 32 | 32 | 4 | 8 | > 64 | 32 |  |  |  | Cl.O=c1[nH]c(NCc2ccc(Cl)c(Cl)c2)nc2cnn(CC3CCCNC3)c12 (centres unmarked) [Compound 154, 5-((3,4-dichlorobenzyl)amino)-1-(piperidin-3-ylmethyl)-1H-pyrazolo[4,3-d]pyrimidin-7(6H)-one hydrochloride]
